Reference: ChEMBL document CHEMBL4406865, “Design, synthesis and biological evaluation of novel semicarbazone-selenochroman-4-ones hybrids as potent antifungal agents” (2019)
Converted amounts (≈) assume the structure as drawn.

What was measured:
Type in all cases: functional
[1] = tested on: Candida albicans; experiment: Antifungal activity against Candida albicans SC5314 incubated for 24 hrs by CLSI protocol based microbroth dilution method; conditions: SC5314, 24 h
[2] = tested on: [Candida] zeylanoides; experiment: Antifungal activity against Candida zeylanoides CGMCC2.3739 measured at 24 hrs by CLSI protocol based microbroth dilution method; conditions: Dujonia zeylanoides, CGMCC2.3739, 24 h
[3] = tested on: Cryptococcus neoformans; experiment: Antifungal activity against Cryptococcus neoformans CGMCC2.3161 measured at 72 hrs by CLSI protocol based microbroth dilution method; conditions: CGMCC2.3161, 72 h
[4] = tested on: Candida albicans; experiment: Antifungal activity against Candida albicans CPCC400616 measured at 24 hrs by CLSI protocol based microbroth dilution method; conditions: CPCC400616, 24 h
[5] = tested on: Aspergillus fumigatus; experiment: Antifungal activity against Aspergillus fumigatus CGMCC 3.7795 measured at 72 hrs by CLSI protocol based microbroth dilution method; conditions: CGMCC 3.7795, 72 h
[6] = tested on: Candida albicans; experiment: Antifungal activity against fluconazole-resistant Candida albicans isolate 103 incubated for 24 hrs by CLSI protocol based microbroth dilution method; conditions: isolate 103, 24 h
[7] = tested on: Candida albicans; experiment: Antifungal activity against fluconazole-resistant Candida albicans isolate 100 incubated for 24 hrs by CLSI protocol based microbroth dilution method; conditions: isolate 100, 24 h
[8] = tested on: Candida albicans; experiment: Antifungal activity against fluconazole-resistant Candida albicans CaR incubated for 24 hrs by CLSI protocol based microbroth dilution method
[9] = tested on: Candida albicans; experiment: Antifungal activity against fluconazole-resistant Candida albicans isolate 17 incubated for 24 hrs by CLSI protocol based microbroth dilution method; conditions: isolate 17, 24 h

| SMILES | MIC90 [1] [µg/mL] | MIC90 [2] [µg/mL] | MIC90 [3] [µg/mL] | MIC90 [4] [µg/mL] | MIC90 [5] [µg/mL] | MIC90 [6] [µg/mL] | MIC90 [7] [µg/mL] | MIC90 [8] [µg/mL] | MIC90 [9] [µg/mL] |
| --- | --- | --- | --- | --- | --- | --- | --- | --- | --- |
| Cc1ccc(C)c(NC(=S)N/N=C2\CC[Se]c3ccc(C)cc32)c1 | 2 (≈ 4.97 µM) | 128 (≈ 318 µM) | 16 (≈ 39.8 µM) | 2 (≈ 4.97 µM) | > 128 | – | – | – | – |
| Fc1ccc2c(c1)/C(=N/NC(=S)Nc1ccccc1)CC[Se]2 | 2 (≈ 5.29 µM) | 8 (≈ 21.1 µM) | 2 (≈ 5.29 µM) | 0.25 (≈ 0.661 µM) | > 128 | 0.5 (≈ 1.32 µM) | 0.5 (≈ 1.32 µM) | 2 (≈ 5.29 µM) | 2 (≈ 5.29 µM) |
| NNC(=S)NN | 64 (≈ 603 µM) | 64 (≈ 603 µM) | 64 (≈ 603 µM) | 32 (≈ 301 µM) | > 128 | – | – | – | – |
| NNC(=S)N/N=C1\CC[Se]c2ccccc21 | 16 (≈ 53.5 µM) | 1 (≈ 3.34 µM) | 0.5 (≈ 1.67 µM) | 8 (≈ 26.7 µM) | > 128 | > 128 | > 128 | > 128 | 64 (≈ 214 µM) |
| CCc1ccccc1NC(=O)N/N=C1\CC[Se]c2ccccc21 | > 128 | > 128 | > 128 | > 128 | > 128 | – | – | – | – |
| Cc1ccc2c(c1)/C(=N/NC(=O)Nc1cc(Cl)cc(Cl)c1)CC[Se]2 | > 128 | > 128 | > 128 | > 128 | > 128 | – | – | – | – |
| Cc1ccc2c(c1)/C(=N/NC(=O)Nc1cccc(Br)c1)CC[Se]2 | > 128 | > 128 | > 128 | > 128 | > 128 | – | – | – | – |
| COc1cccc(NC(=S)N/N=C2\CC[Se]c3ccc(C)cc32)c1 | 64 (≈ 158 µM) | > 128 | 32 (≈ 79.1 µM) | 64 (≈ 158 µM) | > 128 | – | – | – | – |
| O=C1CC[Se]c2ccccc21 | 4 (≈ 18.9 µM) | > 128 | 8 (≈ 37.9 µM) | 64 (≈ 303 µM) | > 128 | – | – | – | – |
| O=C(N/N=C1\CC[Se]c2ccc(F)cc21)Nc1cc(Cl)cc(Cl)c1 | > 128 | > 128 | > 128 | > 128 | > 128 | – | – | – | – |
| Cc1ccc2c(c1)/C(=N/NC(=O)Nc1ccccc1)CC[Se]2 | 4 (≈ 11.2 µM) | 16 (≈ 44.7 µM) | 8 (≈ 22.3 µM) | 64 (≈ 179 µM) | > 128 | – | – | – | – |
| S=C(N/N=C1\CC[Se]c2ccccc21)Nc1ccccc1 | 4 (≈ 11.1 µM) | 1 (≈ 2.78 µM) | 8 (≈ 22.2 µM) | 0.5 (≈ 1.39 µM) | > 128 | > 128 | 32 (≈ 88.8 µM) | 64 (≈ 178 µM) | 4 (≈ 11.1 µM) |
| O=C(N/N=C1\CC[Se]c2ccc(F)cc21)Nc1ccccc1Cl | 2 (≈ 5.04 µM) | 8 (≈ 20.2 µM) | 16 (≈ 40.3 µM) | 8 (≈ 20.2 µM) | > 128 | – | – | – | – |
| Cc1ccc(NC(=S)N/N=C2\CC[Se]c3ccccc32)cc1 | 64 (≈ 171 µM) | 128 (≈ 342 µM) | 8 (≈ 21.4 µM) | 8 (≈ 21.4 µM) | > 128 | – | – | – | – |
| CCOc1ccc(NC(=O)N/N=C2\CC[Se]c3ccc(F)cc32)cc1 | 4 (≈ 9.84 µM) | 16 (≈ 39.4 µM) | 32 (≈ 78.8 µM) | 8 (≈ 19.7 µM) | > 128 | – | – | – | – |
| CCc1ccccc1NC(=O)NN | 32 (≈ 179 µM) | 64 (≈ 357 µM) | 32 (≈ 179 µM) | 64 (≈ 357 µM) | > 128 | – | – | – | – |
| CCc1ccccc1NC(=O)N/N=C1\CC[Se]c2ccc(F)cc21 | 8 (≈ 20.5 µM) | > 128 | > 128 | 8 (≈ 20.5 µM) | > 128 | – | – | – | – |
| Cc1ccc(NC(=S)N/N=C2\CC[Se]c3ccc(F)cc32)cc1 | 32 (≈ 81.6 µM) | 16 (≈ 40.8 µM) | 2 (≈ 5.1 µM) | 8 (≈ 20.4 µM) | > 128 | – | – | – | – |

| SMILES | MIC90 [1] [µg/mL] | MIC90 [2] [µg/mL] | MIC90 [3] [µg/mL] | MIC90 [4] [µg/mL] | MIC90 [5] [µg/mL] | MIC90 [6] [µg/mL] | MIC90 [7] [µg/mL] | MIC90 [8] [µg/mL] | MIC90 [9] [µg/mL] |
| --- | --- | --- | --- | --- | --- | --- | --- | --- | --- |
| CCc1ccccc1NC(=O)N/N=C1\CC[Se]c2ccc(C)cc21 | 64 (≈ 166 µM) | 16 (≈ 41.4 µM) | 4 (≈ 10.4 µM) | 64 (≈ 166 µM) | > 128 | – | – | – | – |
| Cc1ccc2c(c1)/C(=N/NC(=S)Nc1ccccc1)CC[Se]2 | 64 (≈ 171 µM) | > 128 | 16 (≈ 42.7 µM) | 64 (≈ 171 µM) | > 128 | – | – | – | – |
| O=C1CC[Se]c2ccc(F)cc21 | 4 (≈ 17.5 µM) | > 128 | > 128 | 16 (≈ 69.8 µM) | > 128 | – | – | – | – |
| COc1ccc(OC)c(NC(=S)N/N=C2\CC[Se]c3ccccc32)c1 | 4 (≈ 9.51 µM) | 32 (≈ 76.1 µM) | 2 (≈ 4.76 µM) | 8 (≈ 19 µM) | > 128 | – | – | – | – |
| Cc1ccc(C)c(NC(=S)N/N=C2\CC[Se]c3ccc(F)cc32)c1 | 32 (≈ 78.7 µM) | > 128 | 16 (≈ 39.4 µM) | 8 (≈ 19.7 µM) | > 128 | – | – | – | – |
| Cc1ccc(C)c(NC(=O)N/N=C2\CC[Se]c3ccc(F)cc32)c1 | 4 (≈ 10.2 µM) | > 128 | > 128 | 8 (≈ 20.5 µM) | > 128 | – | – | – | – |
| Cc1ccc2c(c1)/C(=N/NC(=O)Nc1ccccc1Cl)CC[Se]2 | 32 (≈ 81.5 µM) | > 128 | 64 (≈ 163 µM) | 64 (≈ 163 µM) | > 128 | – | – | – | – |
| Cc1ccc(C)c(NC(=S)N/N=C2\CC[Se]c3ccccc32)c1 | 8 (≈ 20.6 µM) | 128 (≈ 330 µM) | 16 (≈ 41.2 µM) | 16 (≈ 41.2 µM) | > 128 | – | – | – | – |
| Cc1ccc2c(c1)/C(=N/NC(=S)NN)CC[Se]2 | 8 (≈ 25.5 µM) | > 128 | 4 (≈ 12.8 µM) | 8 (≈ 25.5 µM) | > 128 | – | – | – | – |
| CCOc1ccc(NC(=O)N/N=C2\CC[Se]c3ccc(C)cc32)cc1 | 8 (≈ 19.9 µM) | > 128 | 32 (≈ 79.5 µM) | 64 (≈ 159 µM) | > 128 | – | – | – | – |
| COc1cccc(NC(=S)N/N=C2\CC[Se]c3ccccc32)c1 | 16 (≈ 41 µM) | 2 (≈ 5.12 µM) | 4 (≈ 10.2 µM) | 16 (≈ 41 µM) | > 128 | – | – | – | – |
| COc1ccc(OC)c(NC(=S)N/N=C2\CC[Se]c3ccc(C)cc32)c1 | 32 (≈ 73.7 µM) | 128 (≈ 295 µM) | 32 (≈ 73.7 µM) | 64 (≈ 147 µM) | > 128 | – | – | – | – |
| Cc1ccc(C)c(NC(=O)N/N=C2\CC[Se]c3ccc(C)cc32)c1 | 64 (≈ 166 µM) | > 128 | 64 (≈ 166 µM) | 64 (≈ 166 µM) | > 128 | – | – | – | – |
| COc1cccc(NC(=S)N/N=C2\CC[Se]c3ccc(F)cc32)c1 | 16 (≈ 39.2 µM) | 2 (≈ 4.9 µM) | 1 (≈ 2.45 µM) | 8 (≈ 19.6 µM) | > 128 | – | – | – | – |
| NNC(=S)Nc1ccccc1 | > 128 | > 128 | 64 (≈ 383 µM) | 64 (≈ 383 µM) | > 128 | – | – | – | – |
| Cc1ccc2c(c1)C(=O)CC[Se]2 | 4 (≈ 17.8 µM) | > 128 | > 128 | 32 (≈ 142 µM) | > 128 | – | – | – | – |
| Cc1ccc(NC(=S)N/N=C2\CC[Se]c3ccc(C)cc32)cc1 | 16 (≈ 41.2 µM) | 8 (≈ 20.6 µM) | 32 (≈ 82.4 µM) | 64 (≈ 165 µM) | > 128 | – | – | – | – |
| O=C(N/N=C1\CC[Se]c2ccc(F)cc21)Nc1cccc(Br)c1 | 64 (≈ 145 µM) | > 128 | 16 (≈ 36.3 µM) | 16 (≈ 36.3 µM) | > 128 | – | – | – | – |
